Key:
[1] = target: T1, p38 MAPK/ATF2 (Homo sapiens, UniProt Q16539); assay: In vitro activity assay of p38 MAPK/ATF2 (HTRF); type: biochemical; conditions: p38α, Human ATF2 Protein, ATP; 35 min at 20° C.
T1 construct: purchased Carna Biosciences (p38α); Sino Biological (ATF2) 04-152; 11599-H20B
Description: The inhibitory effect of the compound on p38a-catalyzed ATF2 was evaluated by the HTRF method. The test compound was dissolved in DMSO to obtain a 10 mM stock solution and stored at −20° C. for future use. The initial concentration of the compound was 10 μM, with 0.25% DMSO, 5-fold serial dilution, 8 concentrations, and duplicate wells. The reaction buffer, consisting of 40 mM Tris pH 7.5, 20 mM MgCl2, 0.1 mg/mL BSA, and 50 μM DTT, was used to prepare 3.5×p38α (MAPK14, Carna Biosciences, 04-152) protein working solution, 3.5×Human ATF2 Protein (Sino Biological, 11599-H20B) working solution, and 3.5×ATP working solution. The reaction was terminated with 10 mM EDTA. The final 14 μL reaction system was performed in a 96-well plate (cisbio, 66PL96025), containing 0.29 ng/μL p38a, […] Human ATF2 Protein, and 25 µM ATP. After reacting at 20° C. for 35 min, the pre-prepared antibody solution (cibio, 63ADK015PEG, Phospho-ATF2 Eu Cryptate antibody, Phospho-ATF2 d2 antibody, diluted 40-fold with Detection buffer) was added to each well and incubated overnight at room temperature. The samples were then measured using a microplate reader (HTRF compatible reader). The concentration-effect curve was fitted using GraphPad Prism 8 software, and the compound concentration resulting in 50% inhibition, IC50, was calculated.

[2] = In vitro liver microsome stability, rat; type: in vitro ADME; conditions: liver microsomes, 0.5 mg/mL microsomes, 1 μM compound, NADPH, 37° C., read-out: Rat liver microsomes Half-life T1/2
Description: The reference compound used in this experiment was Ketanserin, and the final concentration of microsomes in the experimental system was 0.5 mg/mL. The PBS buffer was a 50 mM K2HPO4 buffer. The concentration of the test compound was 1 μM. The microsomes were added to PBS, and the control/test compounds were respectively added to the corresponding reaction systems, mixed thoroughly, and pre-incubated in a 37° C. water bath for 5 minutes. The reaction was initiated by adding 20 mM NADPH solution under 37° C. water bath conditions (for the No NADPH samples, an equal volume of PBS solution was used as a substitute for the 20 mM NADPH solution). At the reaction time points of 0 min, 10 min, 30 mun, 60 min, and 90 min, 30 μL of reaction samples were taken from each reaction system (for the No NADPH samples, sampling was performed at 0 min and 90 min), and the reaction was immediately terminated by adding 300 μL of the internal standard acetonitrile solution. After centrifugation at 4000 rpm, the supernatant was taken and mixed thoroughly with an equal volume of pure water. The samples at each time point were analyzed by LC-MS/MS (AB Triple Quard 5500) to determine the compound content, and the T1/2 was calculated.

With `CNC(=O)c1cccc(-c2ncc(C)c(-n3c(C)cc(OCc4ncc(F)cc4F)c(Cl)c3=O)c2F)c1` [Compound 31-P1] the IC50 [1] was 1850 nM and the half-life at 1 μM [2] was 165 min.
